Laboratory results taken from ChEMBL document CHEMBL1681726, “Discovery of orally available tetrahydroquinoline-based glucocorticoid receptor agonists” (Bioorg Med Chem Lett, 2011).

Tests used:
Glucocorticoid receptor [1] = target: T1, Glucocorticoid receptor (Homo sapiens, UniProt P04150); assay: Agonist activity at GR expressed in IL-1beta- and TNFalpha-stimulated HepG2 cells assessed as inhibition of NFKB- or AP-1 mediated E-selectin transcription by luciferase reporter gene assay relative to Dexamethasone; type: functional, cell-based
T1 sequence (P04150 whole entry): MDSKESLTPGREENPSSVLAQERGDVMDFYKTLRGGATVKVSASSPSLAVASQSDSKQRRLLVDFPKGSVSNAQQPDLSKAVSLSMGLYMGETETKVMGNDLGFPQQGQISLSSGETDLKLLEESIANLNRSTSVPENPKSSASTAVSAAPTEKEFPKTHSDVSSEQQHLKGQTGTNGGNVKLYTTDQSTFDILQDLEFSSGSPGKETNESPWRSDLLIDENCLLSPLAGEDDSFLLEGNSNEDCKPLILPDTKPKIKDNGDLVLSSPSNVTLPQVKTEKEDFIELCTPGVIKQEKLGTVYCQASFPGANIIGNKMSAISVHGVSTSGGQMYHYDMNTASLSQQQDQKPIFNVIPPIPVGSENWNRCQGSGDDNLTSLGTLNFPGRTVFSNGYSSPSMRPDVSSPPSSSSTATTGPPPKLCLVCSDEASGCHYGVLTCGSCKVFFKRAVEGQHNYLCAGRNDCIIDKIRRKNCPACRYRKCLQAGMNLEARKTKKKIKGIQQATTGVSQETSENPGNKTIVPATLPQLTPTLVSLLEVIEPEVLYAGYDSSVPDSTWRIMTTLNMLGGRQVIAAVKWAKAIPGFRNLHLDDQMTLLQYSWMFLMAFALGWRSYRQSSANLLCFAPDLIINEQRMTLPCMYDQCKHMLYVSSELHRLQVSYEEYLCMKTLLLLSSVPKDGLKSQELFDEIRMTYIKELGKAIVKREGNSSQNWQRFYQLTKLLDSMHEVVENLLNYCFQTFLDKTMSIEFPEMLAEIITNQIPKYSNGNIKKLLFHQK

Glucocorticoid receptor [2] = target: T1, Glucocorticoid receptor; assay: Displacement of radiolabeled Dexamethasone from GR
Glucocorticoid receptor [3] = target: T1, Glucocorticoid receptor; assay: Agonist activity at GR expressed in african green monkey CV1 cells transfected with luciferase gene linked to MMTV promoter assessed as induction of luciferase transactivation activity relative to Dexamethasone; type: functional, cell-based, CV-1
Glucocorticoid receptor [4] = target: T1, Glucocorticoid receptor; assay: Agonist activity at human GR expressed in NHDF cells assessed as inhibition of IL-6 production by ELISA relative to Dexamethasone; type: functional, cell-based
[5] = Metabolic stability in CD-1 […] liver microsomes by HPLC-MS/MS; type: ADME, Microsome; details: CD-1, liver microsomes
[6] = Metabolic stability in human liver microsomes by HPLC-MS/MS; type: ADME, Microsome
Progesterone receptor = target: T2, Progesterone receptor (Homo sapiens, UniProt P06401); assay: Binding affinity to PR
T2 sequence (P06401 whole entry): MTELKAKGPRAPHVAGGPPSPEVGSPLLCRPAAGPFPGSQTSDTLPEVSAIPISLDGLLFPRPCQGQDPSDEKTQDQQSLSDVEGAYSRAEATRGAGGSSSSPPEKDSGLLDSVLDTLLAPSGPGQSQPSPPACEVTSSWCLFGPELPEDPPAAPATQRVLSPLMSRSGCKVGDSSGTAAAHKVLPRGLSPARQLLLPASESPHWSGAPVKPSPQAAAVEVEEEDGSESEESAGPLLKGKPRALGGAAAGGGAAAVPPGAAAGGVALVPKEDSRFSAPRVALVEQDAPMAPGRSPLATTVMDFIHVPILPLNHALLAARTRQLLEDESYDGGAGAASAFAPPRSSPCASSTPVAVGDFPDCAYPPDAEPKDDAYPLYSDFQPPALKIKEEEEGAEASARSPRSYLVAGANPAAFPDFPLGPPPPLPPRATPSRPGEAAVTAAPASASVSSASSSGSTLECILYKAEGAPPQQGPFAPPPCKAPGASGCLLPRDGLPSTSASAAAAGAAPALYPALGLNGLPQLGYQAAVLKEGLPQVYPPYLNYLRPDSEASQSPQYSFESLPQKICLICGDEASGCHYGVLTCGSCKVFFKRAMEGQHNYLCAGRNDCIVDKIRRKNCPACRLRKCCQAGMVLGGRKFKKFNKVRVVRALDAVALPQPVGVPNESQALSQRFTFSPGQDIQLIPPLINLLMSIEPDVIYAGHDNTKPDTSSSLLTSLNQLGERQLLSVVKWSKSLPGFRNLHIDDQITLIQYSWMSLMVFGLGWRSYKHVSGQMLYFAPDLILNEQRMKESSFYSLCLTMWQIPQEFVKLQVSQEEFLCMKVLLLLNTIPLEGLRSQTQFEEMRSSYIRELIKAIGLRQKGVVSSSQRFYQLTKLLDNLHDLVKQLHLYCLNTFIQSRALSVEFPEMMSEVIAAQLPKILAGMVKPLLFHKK

[7] = Selectivity ratio of Ki for GR to Ki for PR

CO/N=C/c1c(-c2cccc3cc[nH]c23)cc(C)c2c1[C@H](C)[C@@H](O)C(C)(C)N2 (racemic)
IC50 (Glucocorticoid receptor [1]): 1.7 nM
Ki (Glucocorticoid receptor [2]): 6.9 nM
EC50 (Glucocorticoid receptor [3]): 0.4 nM
IC50 (Glucocorticoid receptor [4]): 4.2 nM

Cc1cc(-c2cccc3cc[nH]c23)c(C)c2c1NC(C)(C)[C@H](O)[C@H]2C (racemic)
IC50 (Glucocorticoid receptor [1]): 4.7 nM
Ki (Glucocorticoid receptor [2]): 1.2 nM
EC50 (Glucocorticoid receptor [3]): 0.9 nM
IC50 (Glucocorticoid receptor [4]): 9.3 nM

Cc1cc(-c2cccc3cc[nH]c23)c(F)c2c1NC(C)(C)[C@H](O)[C@H]2C (racemic)
IC50 (Glucocorticoid receptor [1]): 5.9 nM
Ki (Glucocorticoid receptor [2]): 2.3 nM
EC50 (Glucocorticoid receptor [3]): 56 nM
IC50 (Glucocorticoid receptor [4]): 7.1 nM

C[C@H]1c2c(Cl)c(-c3cccc4cc[nH]c34)cc(F)c2NC(C)(C)[C@@H]1O (racemic)
IC50 (Glucocorticoid receptor [1]): 17 nM
Ki (Glucocorticoid receptor [2]): 8 nM
EC50 (Glucocorticoid receptor [3]): 89 nM
half-life [5]: 3.8 min
IC50 (Glucocorticoid receptor [4]): 14 nM
half-life [6]: 15 min

Cc1cc(-c2cccc3cc[nH]c23)c(C#N)c2c1NC(C)(C)[C@H](O)[C@H]2C (racemic)
IC50 (Glucocorticoid receptor [1]): 5.3 nM
Ki (Glucocorticoid receptor [2]): 1.3 nM
EC50 (Glucocorticoid receptor [3]): 9.6 nM
half-life [5]: 13 min
IC50 (Glucocorticoid receptor [4]): 16 nM
half-life [6]: 13 min

CCc1c(-c2cccc3cc[nH]c23)cc(C)c2c1[C@H](C)[C@@H](O)C(C)(C)N2 (racemic)
IC50 (Glucocorticoid receptor [1]): 15 nM
Ki (Glucocorticoid receptor [2]): 11.7 nM
EC50 (Glucocorticoid receptor [3]): 16 nM
IC50 (Glucocorticoid receptor [4]): > 1000 nM

CCO/N=C/c1c(-c2cccc3cc[nH]c23)cc(C)c2c1[C@H](C)[C@@H](O)C(C)(C)N2 (racemic)
IC50 (Glucocorticoid receptor [1]): 0.9 nM
Ki (Glucocorticoid receptor [2]): 1.5 nM
EC50 (Glucocorticoid receptor [3]): 0.2 nM
IC50 (Glucocorticoid receptor [4]): 3.4 nM

C[C@H]1c2c(F)c(-c3cccc4cc[nH]c34)c(F)c(F)c2NC(C)(C)[C@@H]1O (racemic)
IC50 (Glucocorticoid receptor [1]): 3.8 nM
Ki (Glucocorticoid receptor [2]): 5 nM
EC50 (Glucocorticoid receptor [3]): 16 nM
IC50 (Glucocorticoid receptor [4]): 19 nM

Cc1cc(-c2cccc3cc[nH]c23)c(/C=N/OCc2ccccc2)c2c1NC(C)(C)[C@H](O)[C@H]2C (racemic)
IC50 (Glucocorticoid receptor [1]): 3.1 nM
Ki (Glucocorticoid receptor [2]): 3.5 nM
EC50 (Glucocorticoid receptor [3]): 3.7 nM
IC50 (Glucocorticoid receptor [4]): 14.4 nM

Cc1cc(-c2cccc3cc[nH]c23)c(/C=N/O)c2c1NC(C)(C)[C@H](O)[C@H]2C (racemic)
IC50 (Glucocorticoid receptor [1]): 11 nM
Ki (Glucocorticoid receptor [2]): 319 nM
EC50 (Glucocorticoid receptor [3]): 105 nM
IC50 (Glucocorticoid receptor [4]): > 1000 nM

Cc1cc(-c2cccc3cc[nH]c23)c(/C=N/OC(C)(C)C)c2c1NC(C)(C)[C@H](O)[C@H]2C (racemic)
IC50 (Glucocorticoid receptor [1]): 5.5 nM
Ki (Glucocorticoid receptor [2]): 6 nM
EC50 (Glucocorticoid receptor [3]): 34 nM
IC50 (Glucocorticoid receptor [4]): 3.8 nM

C=Cc1c(-c2cccc3cc[nH]c23)cc(C)c2c1[C@H](C)[C@@H](O)C(C)(C)N2 (racemic)
IC50 (Glucocorticoid receptor [1]): > 1000 nM
Ki (Glucocorticoid receptor [2]): 19.6 nM
EC50 (Glucocorticoid receptor [3]): 40 nM
IC50 (Glucocorticoid receptor [4]): > 1000 nM

Cc1cc(-c2cccc3cc[nH]c23)c(Cl)c2c1NC(C)(C)[C@H](O)[C@H]2C (racemic)
half-life [5]: 3.3 min
half-life [6]: 4.7 min

C[C@H]1c2c(F)c(-c3cccc4cc[nH]c34)c(F)c(Cl)c2NC(C)(C)[C@@H]1O (racemic)
IC50 (Glucocorticoid receptor [1]): 3.9 nM
Ki (Glucocorticoid receptor [2]): 1 nM
EC50 (Glucocorticoid receptor [3]): 1.3 nM
IC50 (Glucocorticoid receptor [4]): 16 nM

Cc1c(F)c(-c2cccc3cc[nH]c23)cc2c1NC(C)(C)[C@H](O)[C@H]2C (racemic)
IC50 (Glucocorticoid receptor [1]): 1.7 nM
Ki (Glucocorticoid receptor [2]): 0.9 nM
EC50 (Glucocorticoid receptor [3]): 40 nM
half-life [5]: 16 min
IC50 (Glucocorticoid receptor [4]): 4.1 nM
half-life [6]: 17 min

Cc1c2c(cc(-c3cccc4cc[nH]c34)c1C(F)(F)F)[C@H](C)[C@@H](O)C(C)(C)N2 (racemic)
IC50 (Glucocorticoid receptor [1]): > 1000 nM
Ki (Glucocorticoid receptor [2]): 106 nM
EC50 (Glucocorticoid receptor [3]): > 1000 nM
IC50 (Glucocorticoid receptor [4]): > 1000 nM

Cc1c(Cl)c(-c2cccc3cc[nH]c23)cc2c1NC(C)(C)[C@H](O)[C@H]2C (racemic)
IC50 (Glucocorticoid receptor [1]): 21 nM
Ki (Glucocorticoid receptor [2]): 1.8 nM
EC50 (Glucocorticoid receptor [3]): 36 nM
half-life [5]: 25 min
Ki (Progesterone receptor): 190 nM
Ratio Ki [7]: > 100
IC50 (Glucocorticoid receptor [4]): 26 nM
half-life [6]: 21 min

Cc1cc(-c2cccc3cc[nH]c23)cc2c1NC(C)(C)[C@H](O)[C@H]2C (racemic)
IC50 (Glucocorticoid receptor [1]): 21 nM
Ki (Glucocorticoid receptor [2]): 9 nM
EC50 (Glucocorticoid receptor [3]): 108 nM
IC50 (Glucocorticoid receptor [4]): > 1000 nM

Cc1c(-c2cccc3cc[nH]c23)cc2c(c1C)NC(C)(C)[C@H](O)[C@H]2C (racemic)
IC50 (Glucocorticoid receptor [1]): 42 nM
Ki (Glucocorticoid receptor [2]): 38.3 nM
EC50 (Glucocorticoid receptor [3]): 205 nM
IC50 (Glucocorticoid receptor [4]): > 1000 nM

Cc1cc(-c2cccc3cc[nH]c23)c(/C=C/C#N)c2c1NC(C)(C)[C@H](O)[C@H]2C (racemic)
IC50 (Glucocorticoid receptor [1]): 6.5 nM
Ki (Glucocorticoid receptor [2]): 16.6 nM
EC50 (Glucocorticoid receptor [3]): 5.7 nM
IC50 (Glucocorticoid receptor [4]): 16 nM

CC(=O)/C=C/c1c(-c2cccc3cc[nH]c23)cc(C)c2c1[C@H](C)[C@@H](O)C(C)(C)N2 (racemic)
IC50 (Glucocorticoid receptor [1]): 7.8 nM
Ki (Glucocorticoid receptor [2]): 10.4 nM
EC50 (Glucocorticoid receptor [3]): 112 nM
IC50 (Glucocorticoid receptor [4]): > 1000 nM

C[C@H]1c2c(cc(Cl)c(-c3cccc4cc[nH]c34)c2Cl)NC(C)(C)[C@@H]1O (racemic)
IC50 (Glucocorticoid receptor [1]): 301 nM
Ki (Glucocorticoid receptor [2]): 157 nM
EC50 (Glucocorticoid receptor [3]): 480 nM
IC50 (Glucocorticoid receptor [4]): > 1000 nM

C=Cc1c(-c2cccc3cc[nH]c23)cc2c(c1C)NC(C)(C)[C@H](O)[C@H]2C (racemic)
IC50 (Glucocorticoid receptor [1]): 13 nM
Ki (Glucocorticoid receptor [2]): 3.1 nM
EC50 (Glucocorticoid receptor [3]): 18 nM
IC50 (Glucocorticoid receptor [4]): > 1000 nM

C[C@H]1c2cc(-c3cccc4cc[nH]c34)c(F)c(F)c2NC(C)(C)[C@@H]1O (racemic)
IC50 (Glucocorticoid receptor [1]): 7.7 nM
Ki (Glucocorticoid receptor [2]): 2.4 nM
EC50 (Glucocorticoid receptor [3]): 11 nM
IC50 (Glucocorticoid receptor [4]): 20 nM
